“And” between values parts separate entries of the source, which are not always exact repeats. Identical values can stand only once. Like-named read-outs stand apart in the source and are kept apart here.
Columns and labels:
[1] = biological target: T1, BTK^FL (Homo sapiens, UniProt Q06187+Q13490); test: Expi293 dose-dependent BTK degradation (western blot), BTK^FL co-transfected with cIAP1^FL; type: cell-based; conditions: for DC50: Expi293, cIAP1^FL co-transfected, ~18 h, 3 experiments, read-out: DC50 for degradation of BTK^FL (WT)
T1 construct: we used a full-length BTK (aa1-659) with a C terminal Tobacco Etch Virus protease (TEV) site; expressed in transfected cells; host or cells: Expi293 (HEK293)
T1 sequence (Q06187 whole entry, the tested form may be a part): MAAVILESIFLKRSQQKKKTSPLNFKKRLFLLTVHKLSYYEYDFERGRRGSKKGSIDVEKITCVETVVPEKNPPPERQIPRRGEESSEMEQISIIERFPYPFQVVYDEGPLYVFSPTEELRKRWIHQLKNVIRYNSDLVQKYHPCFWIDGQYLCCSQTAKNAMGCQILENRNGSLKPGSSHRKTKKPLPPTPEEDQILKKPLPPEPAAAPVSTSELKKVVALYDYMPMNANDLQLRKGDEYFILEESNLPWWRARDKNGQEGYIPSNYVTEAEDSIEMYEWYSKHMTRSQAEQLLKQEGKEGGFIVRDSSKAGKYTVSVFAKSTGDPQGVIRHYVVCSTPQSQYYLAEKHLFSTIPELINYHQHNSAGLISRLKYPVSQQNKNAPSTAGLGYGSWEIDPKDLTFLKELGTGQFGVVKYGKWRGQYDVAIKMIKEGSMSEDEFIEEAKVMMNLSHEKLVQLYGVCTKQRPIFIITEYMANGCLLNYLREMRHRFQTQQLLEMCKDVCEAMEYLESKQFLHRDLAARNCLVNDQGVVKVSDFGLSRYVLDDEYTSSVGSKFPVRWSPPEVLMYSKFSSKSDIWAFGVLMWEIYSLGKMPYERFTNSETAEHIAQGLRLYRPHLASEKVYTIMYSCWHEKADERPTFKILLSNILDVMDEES
T1 sequence (Q13490 whole entry, the tested form may be a part): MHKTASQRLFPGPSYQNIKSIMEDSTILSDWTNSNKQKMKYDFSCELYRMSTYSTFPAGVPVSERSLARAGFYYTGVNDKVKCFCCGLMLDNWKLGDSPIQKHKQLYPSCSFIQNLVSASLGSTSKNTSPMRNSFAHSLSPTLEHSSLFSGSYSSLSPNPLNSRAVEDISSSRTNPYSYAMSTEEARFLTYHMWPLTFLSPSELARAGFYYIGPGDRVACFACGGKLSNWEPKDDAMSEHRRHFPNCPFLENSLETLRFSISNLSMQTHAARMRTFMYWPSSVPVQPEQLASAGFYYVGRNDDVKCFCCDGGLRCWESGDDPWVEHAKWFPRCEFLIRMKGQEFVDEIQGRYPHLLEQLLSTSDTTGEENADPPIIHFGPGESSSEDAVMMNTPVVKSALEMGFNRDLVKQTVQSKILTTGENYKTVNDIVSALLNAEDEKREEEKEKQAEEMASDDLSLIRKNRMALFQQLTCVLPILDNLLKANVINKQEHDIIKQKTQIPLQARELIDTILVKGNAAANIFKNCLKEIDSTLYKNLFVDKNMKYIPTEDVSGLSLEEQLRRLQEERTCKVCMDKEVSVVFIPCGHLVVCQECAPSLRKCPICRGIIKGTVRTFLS
Experimental: (§1) Gibco Expi293 cell line Transfection Kit (Cat.# A14524) was cultured according to the manufacturers conditions. Cells were grown at 37 °C with 5% CO2 to 4 × 10^6 cells/mL using an orbital shaker set to 95 RPM. Next cells were split to 2 × 10^6 cells/mL and transfected with plasmid DNA at a 1 µg/mL final concentration in Optimem (Gibco 31985070) using the Expifectamine 293 transfection reagent according to manufacturer’s conditions. After approximately 18 h, enhancers 1 and 2 (provided with kit). Viability was typically about 85%. When cIAP1^FL was transfected, it was detected via α-cIAP1 antibody there was typically some autoubiquitination detected, and thus often appeared as a laddered or smeared band via western blotting. When BTK^FL variants were transfected, they were detected using anti-BTK antibody (D3H5).
For dose-dependent degradation assays, cells were plated in a 24-well format and placed on a separate orbital shaker set to 115 RPM. Each well was treated with prescribed compound concentrations in the same manner as with THP-1 cells, with the exception of using Expifectamine 293 growth medium in place of RPMI 1640 complete media. After approximately 18 h post-treatment cells were harvested, centrifuged at 100 x g at 4 °C, washed twice with ice-cold PBS, and resuspended in RIPA buffer supplemented with a Roche protease inhibitor cocktail (Cat. #11873580001), and benzonase nuclease (Millipore-Sigma Cat# 70664). Each sample was incubated on ice for 30 min with periodic vortexing and centrifuged at 15 Kxg for 20 min. Clarified lysate was harvested and quantified using a Pierce BCA Assay Kit (Cat. #23225), and 20 µg of the sample was loaded into a 4–15% Criterion TGX gel (Bio-Rad, 5678085) and transferred to a nitrocellulose membrane (Life Technologies Cat. #IB23001) using an iBlot 2 (Life Technologies Cat. #IB21001). Proteins were detected using an iBind system (Life Technologies SLF2020). For BTK^T474I and BTK^T474I/C481S we inferred ligand entry into cells via the autoubiquitination and dose-dependent degradation of cIAP1^FL,[58].
(§2) Dose-dependent Degradation was analyzed using ImageJ (NIH, version 1.50i). Densiometric analysis was performed, normalized to DMSO signal, and analyzed using GraphPad Prism (Version 9.0.0 (121)). Non-linear fit one-phase decay analysis was used to obtain DC50 values. When we observed a hook effect, some points were excluded as part of the fit. In Supplementary Fig. 7B the complete curve was fit using GraphPad Prism non-linear regression bell-shaped curve where X is the concentration. However, using this method we were unable to obtain stable values for our DC50. SEM error was plotted for each point. When determining statistically significant differences, we used a two-sided student’s unpaired T-Test.

[2] = biological target: T2, BTK (Homo sapiens, UniProt Q06187+Q13490); test: THP-1 dose-dependent degradation of endogenous BTK; type: cell-based; conditions: replicates
T2 construct: a THP-1 cell line which natively expresses both BTK and cIAP1; host or cells: THP-1
T2 sequence (Q06187 whole entry): as the sequence (Q06187 whole entry, the tested form may be a part) above
T2 sequence (Q13490 whole entry): as the sequence (Q13490 whole entry, the tested form may be a part) above
Experimental: Human monocytic leukemia THP-1 Cells (ATCC TIB202) were grown in RPMI 1640 complete media (Gibco Cat# 11875-093), 10% Heat Inactivated FBS (Gibco Cat# 10438026), 2 mM L-Glutamine (Gibco Cat# 25030-081), 10 mM HEPES (Lonza Cat# 17-737E). Cells were cultured to approximately 0.8 × 10^6 cells/mL, centrifuged at 100 x g at 4 °C for 5 min, and resuspended in growth medium at 1.25 × 10^6 cells/mL, and 750 µL were plated in a 24-well format. Compounds were serially diluted in DMSO and individually added to pre-warmed complete media at a 4x concentration. Subsequently, 250 µL was added to their respective well, making it a 1x concentration. Endpoint viability was ≥95%. Each experiment was performed with n = 3 independent experiments. Three datapoints are missing due to blot.
as §2

[3] = biological target: T3, BTK^KD and cIAP1^BUCR1 ternary complex (Homo sapiens, UniProt Q06187+Q13490); test: Biolayer interferometry (BLI) ternary complex formation; type: binding
T3 construct: BTK^KD (aa384-659) were expressed and purified as previously described; cIAP1^BUCR1 (aa260-618), and BTK^KD (aa384-659) were expressed and purified as previously described; biotin / BAP (only when BTK^KD~BCCov was the sensor ligand); made in house; host or cells: BTK^KD: SF9 insect cells; cIAP1^BUCR1: E. coli BL21-DE3
T3 sequence (Q06187 384-659): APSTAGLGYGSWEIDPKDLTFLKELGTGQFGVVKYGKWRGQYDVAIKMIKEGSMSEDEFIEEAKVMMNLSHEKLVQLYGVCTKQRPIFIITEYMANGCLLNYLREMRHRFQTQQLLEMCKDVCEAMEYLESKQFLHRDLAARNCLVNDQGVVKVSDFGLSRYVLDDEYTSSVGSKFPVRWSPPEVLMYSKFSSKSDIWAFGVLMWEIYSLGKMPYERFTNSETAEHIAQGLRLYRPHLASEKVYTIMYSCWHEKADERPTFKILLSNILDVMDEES
T3 sequence (Q13490 260-618): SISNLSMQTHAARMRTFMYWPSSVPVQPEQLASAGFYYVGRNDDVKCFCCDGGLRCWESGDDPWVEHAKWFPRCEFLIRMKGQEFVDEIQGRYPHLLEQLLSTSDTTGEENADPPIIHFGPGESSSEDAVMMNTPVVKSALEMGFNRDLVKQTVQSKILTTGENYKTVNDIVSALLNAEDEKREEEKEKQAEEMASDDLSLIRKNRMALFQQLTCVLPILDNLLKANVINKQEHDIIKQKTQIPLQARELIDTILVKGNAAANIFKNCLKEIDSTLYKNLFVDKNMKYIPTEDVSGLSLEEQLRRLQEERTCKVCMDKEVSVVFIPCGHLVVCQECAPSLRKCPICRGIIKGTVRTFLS
Experimental: We performed biolayer interferometry (BLI) with an OctetRED384 system (Data Acquisition Version 9.0.0.49) as described previously. […] Ligands were loaded onto streptavidin biosensors (ForteBio, 18-5019) for 120 s, washed in Octet buffer for 200 s, quenched with 50 μM d-biotin (Invitrogen) for 120 s, and washed in Octet buffer for 500 s. […] Excess compound was desalted using a Zeba Spin Desalting Column (Cat. #89882). The preformed binary complex was then dipped into varying concentrations of analyte diluted in Octet buffer for 300 s to determine kon, followed by a wash for 500 s to determine koff. Binding kinetics were calculated and plotted using BiaEvaluation Software (version 4.1.1). Cooperativity (α) was determined by calculating the ratio of binary Kd to ternary complex Kd.

[4] = biological target: T4, BTK^T474I-C481S (Homo sapiens, UniProt Q06187+Q13490, C481S/T474I); test: Expi293 dose-dependent degradation of BTK double mutant; type: cell-based; conditions: Expi293 with cIAP1^FL
T4 construct: we used a full-length BTK (aa1-659) with a C terminal Tobacco Etch Virus protease (TEV) site; expressed in transfected cells; host or cells: Expi293 (HEK293)
T4 sequence (Q06187 whole entry T474I/C481S, the tested form may be a part): as the sequence (Q06187 whole entry, the tested form may be a part) above, with T474I, C481S counted along it
T4 sequence (Q13490 whole entry, the tested form may be a part): as the sequence (Q13490 whole entry, the tested form may be a part) above
Experimental: as §1
For dose-dependent degradation assays, cells were plated in a 24-well format and placed on a separate orbital shaker set to 115 RPM. […] Clarified lysate was harvested and quantified using a Pierce BCA Assay Kit (Cat. #23225), and 20 µg of the sample was loaded into a 4–15% Criterion TGX gel (Bio-Rad, 5678085) and transferred to a nitrocellulose membrane (Life Technologies Cat. #IB23001) using an iBlot 2 (Life Technologies Cat. #IB21001). Proteins were detected using an iBind system (Life Technologies SLF2020). […]

[5] = biological target: cIAP1^BUCR1 (Homo sapiens, UniProt Q13490); test: biochemical
Chain of cIAP1^BUCR1 (Q13490 260-618): as the sequence (Q13490 260-618) above
Experimental: Experiments were performed on a Biacore^TM 8k instrument (GE Healthcare). Biotinylated cIAP1^Bir3 was captured onto a streptavidin sensor chip to levels ranging from 3000–4000 RU. Compound binding experiments were performed in 10 mM HEPES, pH 7.5, 150 mM NaCl, 0.02% BSA, 0.01% P20, and 2% DMSO at 25 °C. Experiments were carried out with n = 4 at 6 concentrations, with the highest concentration of 37 nM and subsequent 3-fold dilutions. BCCov was injected at a flow rate of 30 µL/min, total contact time of 120 s, and dissociation times of 5000 s, using the Single Cycle Kinetics experiment. Binding responses were processed using the Biacore 8k software to zero, x-align, double reference, and correct for excluded volume effects of DMSO in the data.

Row | Compound | WT BTK blot signal normalized to DMSO ([1]; 0.004883 uM, replicates) | WT BTK blot signal normalized to DMSO ([1]; 0.009766 uM, replicates) | WT BTK blot signal normalized to DMSO ([1]; 0.019531 uM, replicates) | WT BTK blot signal normalized to DMSO ([1]; 0.039063 uM, replicates) | WT BTK blot signal normalized to DMSO ([1]; 0.078125 uM, replicates) | WT BTK blot signal normalized to DMSO ([1]; 0.15625 uM, replicates) | WT BTK blot signal normalized to DMSO ([1]; 0.3125 uM, replicates) | WT BTK blot signal normalized to DMSO ([1]; 0.625 uM, replicates) | WT BTK blot signal normalized to DMSO ([1]; 1.25 uM, replicates) | WT BTK blot signal normalized to DMSO ([1]; 2.5 uM, replicates) | WT BTK blot signal normalized to DMSO ([1]; 5 uM, replicates) | DC50 [1] [nM] | endogenous BTK blot signal normalized to DMSO ([2]; THP-1, 0.63 uM) | endogenous BTK blot signal normalized to DMSO ([2]; THP-1, 1.25 uM) | endogenous BTK blot signal normalized to DMSO ([2]; THP-1, 2.50 uM) | endogenous BTK blot signal normalized to DMSO ([2]; THP-1, 5.00 uM) | also measured
1 | CNC(C)C(=O)NC(C(=O)N1CC(NC(=O)COCCN2CCN(CCCC(=O)N3CCCC(n4nc(-c5ccc(Oc6ccccc6)cc5)c5c(N)ncnc54)C3)CC2)CC1C(=O)NC1CCCc2ccccc21)C1CCCCC1 (stereo not drawn) [BCNC] | 0.92 and 1.00 (2×) | 0.74 and 1.02 and 0.84 | 0.72 and 0.83 and 0.75 | 0.52 and 0.87 and 0.78 | 0.38 and 0.65 and 0.51 | 0.29 and 0.54 and 0.30 | 0.25 and 0.36 and 0.30 | 0.21 and 0.32 and 0.16 | 0.2 and 0.35 and 0.15 | 0.24 and 0.40 and 0.29 | 0.68 and 0.77 and 0.51 | 149 ± 70 | 0.00 | 0.00 | 0.00 | 0.00 | endogenous BTK blot signal normalized to DMSO ([2]; THP-1, 0.00488 uM, listed as noncov): 0.97 and 1.25 and 1.03; endogenous BTK blot signal normalized to DMSO ([2]; THP-1, 0.01 uM, listed as noncov): 1.01 and 1.22 and 0.91; endogenous BTK blot signal normalized to DMSO ([2]; THP-1, 0.02 uM, listed as noncov): 1.09 and 1.18 and 0.86; endogenous BTK blot signal normalized to DMSO ([2]; THP-1, 0.04 uM, listed as noncov): 1.06 and 1.18 and 0.70; endogenous BTK blot signal normalized to DMSO ([2]; THP-1, 0.08 uM, listed as noncov): 0.36 and 0.68 and 0.42; endogenous BTK blot signal normalized to DMSO ([2]; THP-1, 0.16 uM, listed as noncov): 0.23 and 0.28 (2×); endogenous BTK blot signal normalized to DMSO ([2]; THP-1, 0.31 uM, listed as noncov): 0.17 and 0.09 and 0.13; Kd ([3]; [cIAP1^BUCR1-BCNC] binary complex binding BTK^KD, read-out: Kd, ternary complex): 49.8 nM
2 | CNC(C)C(=O)NC(C(=O)N1CC(NC(=O)COCCN2CCN(CC=CC(=O)N3CCCC(n4nc(-c5ccc(Oc6ccccc6)cc5)c5c(N)ncnc54)C3)CC2)CC1C(=O)NC1CCCc2ccccc21)C1CCCCC1 (stereo not drawn) [BCCov] | 0.92 and 0.99 and 1.00 | 0.74 and 1.02 and 0.84 | 0.72 and 0.83 and 0.75 | 0.52 and 0.87 and 0.78 | 0.38 and 0.65 and 0.51 | 0.29 and 0.54 and 0.30 | 0.25 and 0.36 and 0.30 | 0.21 and 0.32 and 0.16 | 0.20 and 0.35 and 0.15 | 0.24 and 0.40 and 0.29 | 0.68 and 0.77 and 0.51 | 57.2 ± 28 | 0.18 and 0.24 and 0.08 | 0.13 and 0.23 and 0.0336 | 0.11 and 0.00 and 0.00241 | 0.056 and 0.00 (2×) | BTK level normalized to untreated BTK^FL, Figure 1B Lane 2 ([1]; 5 µM, BTK^FL without cIAP1^FL, replicates): 1.30 and 0.97 and 0.91; BTK degradation without cIAP1^FL ([1]; BTK^FL transfected without cIAP1^FL (Fig. 1B, lane 2)): no observable ligand-induced BTK degradation; hook effect in degradation profile ([1]; wt BTK^FL, Expi293): partial hook effect; degradation of BTK^T474I-C481S [4]: loss of activity; endogenous BTK blot signal normalized to DMSO ([2]; THP-1, 0.00488 uM): 1.05 and 0.90 and 1.04; endogenous BTK blot signal normalized to DMSO ([2]; THP-1, 0.01 uM): 1.07 and 1.23 and 0.79; endogenous BTK blot signal normalized to DMSO ([2]; THP-1, 0.02 uM): 0.87 and 1.16 and 0.59; endogenous BTK blot signal normalized to DMSO ([2]; THP-1, 0.04 uM): 0.60 and 1.52 and 0.48; endogenous BTK blot signal normalized to DMSO ([2]; THP-1, 0.08 uM): 0.50 and 0.87 and 0.33; endogenous BTK blot signal normalized to DMSO ([2]; THP-1, 0.16 uM): 0.45 and 0.72 and 0.21; endogenous BTK blot signal normalized to DMSO ([2]; THP-1, 0.31 uM): 0.22 and 0.32 and 0.13; Kd [3]: 72.5 nM; cooperativity factor α = Kd binary/Kd ternary ([3]; upper limit): ≤ 0.2; Kd [5]: ≤ 10 nM
